Laboratory results published in patent US7825068B2, “Heterocyclylethylcarboxamide derivatives” (Bayer Cropscience AG, priority 2005, dated 2010).

Experiments:
Alternaria brassicae = test: In vivo test on Alternaria brassicae (preventive spray on radish plants); settings: for efficacy against Alternaria brassicae: 330 ppm, comparison compounds of WO 2004/074280
Experimental: The active ingredient tested is prepared by potter homogenisation in a concentrated suspension type formulation at 100 g/l. […] Radish plants (Pernot variety) in starter cups, sown on a 50/50 peat soil-pozzolana substrate and grown at 18-20° C., are treated at the cotyledon stage by spraying with the aqueous suspension described above. Plants, used as controls, are treated with an aqueous solution not containing the active material. After 24 hours, the plants are contaminated by spraying them with an aqueous suspension of Alternaria brassicae spores (40,000 spores per cm^3). The spores are collected from a 12-13-day-old culture. The contaminated radish plants are incubated for 6-7 days at about 18° C., under a humid atmosphere. Grading is carried out 6 to 7 days after the contamination, in comparison with the control plants.

Pyrenophora teres = test: In vivo test on Pyrenophora teres (preventive spray on barley plants); settings: 330 ppm; comparison compounds of WO 2004/074280
Experimental: The active ingredient tested is prepared by potter homogenisation in a concentrated suspension type formulation at 100 g/l. […] Barley plants (Express variety) in starter cups, sown on a 50/50 peat soil-pozzolana substrate and grown at 12° C., are treated at the 1-leaf stage (10 cm tall) by spraying with the aqueous suspension described above. Plants, used as controls, are treated with an aqueous solution not containing the active material. After 24 hours, the plants are contaminated by spraying them with an aqueous suspension of Pyrenophora teres spores (12,000 spores per ml). The spores are collected from a 12-day-old culture. The contaminated barley plants are incubated for 24 hours at about 20° C. and at 100% relative humidity, and then for 12 days at 80% relative humidity. Grading is carried out 12 days after the contamination, in comparison with the control plants.

SMILES	efficacy against Alternaria brassicae (Alternaria brassicae)	efficacy against Pyrenophora teres (Pyrenophora teres)	protection (good (at least 50%) to total) (Alternaria brassicae; dose of 110 ppm, radish plants (Pernot variety), grading 6 to 7 days after contamination, in comparison with control plants)
Cn1cccc1C(=O)NCCc1ncc(C(F)(F)F)cc1Cl [Compound F1, N-{2-[3-chloro-5-(trifluoromethyl)pyridin-2-yl]ethyl}-1-methyl-1H-pyrrole-2-carboxamide]	no efficacy	no efficacy	
Cc1cc(C(=O)NCCc2nc(F)c(F)cc2F)c(C)o1 [Compound B17, 2,5-dimethyl-N-[2-(3,5,6-trifluoropyridin-2-yl)ethyl]-3-furamide]	no efficacy	no efficacy	
CSc1sc(C(=O)NCCc2ncc(C(F)(F)F)cc2Cl)c(I)c1S(=O)(=O)C(C)C [Compound C10, N-{2-[3-chloro-5-(trifluoromethyl)pyridin-2-yl]ethyl}-3-iodo-4-(isopropylsulfonyl)-5-(methylthio)thiophene-2-carboxamide]	no efficacy	no efficacy	
Cc1nc(-c2ccccc2)sc1C(=O)NCCc1ncc(C(F)(F)F)cc1Cl [Compound H3, N-{2-[3-chloro-5-(trifluoromethyl)pyridin-2-yl]ethyl}-4-methyl-2-phenyl-1,3-thiazole-5-carboxamide]	no efficacy	no efficacy	
Cc1c(C(=O)NCCc2ncc(C(F)(F)F)cc2Cl)cnn1-c1ccccc1 [Compound J9, N-{2-[3-chloro-5-(trifluoromethyl)pyridin-2-yl]ethyl}-5-methyl-1-phenyl-1H-pyrazole-4-carboxamide]	no efficacy	no efficacy	
CC1=C(C(=O)NCCc2ncc(Cl)cc2F)SCCO1 [Compound V9, N-[2-(5-chloro-3-fluoropyridin-2-yl)ethyl]-2-methyl-5,6-dihydro-1,4-oxathiine-3-carboxamide]	no efficacy	no efficacy	
CC1=C(C(=O)NCCc2nc(Cl)ccc2Cl)SCCO1 [Compound V10, N-[2-(3,6-dichloropyridin-2-yl)ethyl]-2-methyl-5,6-dihydro-1,4-oxathiine-3-carboxamide]	no efficacy	no efficacy	
O=C(NCCc1ncc(C(F)(F)F)cc1Cl)C1CCN(C(=O)OCc2ccccc2)CC1 [Compound T1, benzyl 4-[({2-[3-chloro-5-(trifluoromethyl)pyridin-2-yl]ethyl}amino)carbonyl]piperidine-1-carboxylate]	no efficacy	no efficacy	
Cc1onc(-c2ccccc2)c1C(=O)NCCc1ncc(C(F)(F)F)cc1Cl [Compound M3, N-{2-[3-chloro-5-(trifluoromethyl)pyridin-2-yl]ethyl}-5-methyl-3-phenylisoxazole-4-carboxamide]	no efficacy	no efficacy	
O=C(NCCc1ccc(Cl)cn1)c1cccnc1Cl [Compound R32, 2-chloro-N-[2-(5-chloropyridin-2-yl)ethyl]nicotinamide]	no efficacy	no efficacy	
Cc1cc(C(=O)NCCc2cn(C)nc2C(F)(F)F)c(C(F)(F)F)o1 [Compound J-3]			at least 50%
